The molecule `COc1ccc(COC(=O)CC(=O)Oc2ccc3sc4nc(-c5ccc(OC)cc5)cn4c3c2)cc1` registered a melting point of 158 to 160 °C. `CCOc1cc(OCCCc2cn(-c3ccc(C(F)(F)F)cn3)nc2O)ccc1CCC(=O)O` had a melting point of 192 to 194 °C. Next, `CC(C)(C)NCC(O)COc1ccc(C(=O)Nc2cccc3[nH]ccc23)cc1` (stereo unspecified): 212 °C; `Nc1nccc(OCc2ccccc2)c1[N+](=O)[O-]`: 145 to 147 °C. Molecule `Cc1cccc(NC(=O)CN2CCN(c3ccccc3)CC2)c1` gave a melting point of 120 to 121 °C. Next, `Cc1cc(C)c(OP(Oc2c(C)cc(C)cc2C)Oc2c(C)cc(C)cc2C)c(C)c1`: 92 to 95 °C; `COc1c2c(nn1-c1ccc(Cl)cc1F)CCCC2`: 100 to 102 °C; `COC(=O)c1[nH]c2c(C)ccc(C)c2c1-c1ccccc1`: 143 to 145 °C. Next, `C#CCON=Cc1c(C(=O)OC)[nH]c2c(C)ccc(C)c12`: 113 to 114 °C; `Cc1noc([C@@H](Cc2ccccc2)NC(=O)[C@@H](Cc2ccc3ccccc3c2)NC(=O)[C@@H]2CCCN(C(=O)OC(C)(C)C)C2)n1`: 198 to 200 °C. Regarding `CSc1ccc(-c2nc(SC)c(C#N)c(=O)n2-c2ccc(C(C)(C)C)cc2)cc1`, the melting point fell in the range of 233 to 236 °C. In turn, `CCOC(=O)c1cn(C)c2cnc3cc(F)c(N4CCC(O)(c5cccc(C(F)(F)F)c5)CC4)cc3c2c1=O` yielded a melting point of 262 °C. As for `O=C1NC(=O)C2(CCNCC2)N1Cc1ccccc1`, the melting point lay in the range of 195 to 196 °C. `O=C(O)c1cc(OCc2ccccc2)cc([N+](=O)[O-])c1` displayed a melting point of 157 to 158 °C.

Consider `CCCCCS(=O)(=O)NC(=O)c1ccc2nc(C)n(Cc3ccc(NC)cc3Cl)c2n1`, for which the melting point fell in the range of 185 to 186 °C.

`COC(=O)c1cc(C(C)=O)cs1`: the melting point was in the range of 94 to 96 °C.

For the molecule `CC(=O)c1ccc(OC(=O)c2c3ccccc3nc3ccccc23)cc1`, the melting point is 214 to 215 °C. Next, `Cc1nc(-c2cccnc2)sc1-c1ccnc(Nc2ccc(N3CCSCC3)cc2)n1`: 191 to 193 °C; `Cc1ccc(S(=O)(=O)n2ccc3cc(C#N)ccc32)cc1`: 129 to 131 °C; `COC(=O)CC=CCC(=O)NCCc1ccccc1`: 69 to 70 °C. The molecule `CN1C(=O)C(C)(C)N=C(c2ccccc2Cl)c2c1ccc(N)c2Cl` displayed a melting point of 195 to 196 °C.

The molecule `C=CCn1nc(-c2sc(C(=O)NCc3ccccn3)nc2-c2ccccc2)ccc1=O` registered a melting point of 117 to 118 °C. Next, `C[Si](C)(C)CC(O)(Cn1cncn1)c1ccccc1` (stereo unspecified): 86 to 87 °C; `CCCCCCCCCCCCSC1C=NNC1=O` (stereo unspecified): 88.5 to 90 °C; `CCCc1cc(-c2ccc(F)c3ccccc23)nc(N)n1`: 137 °C. Next, `CCCCCCSC1=CC(=O)NC1=O`: 99 to 101 °C; `CCc1nn(C2CCCC2)c2cc(C(=O)NCCC(=O)NO)ccc12`: 166 to 169 °C; `CCCCCNC(=O)Nc1ccccc1C(=O)NCC1CCN(C(c2ccccc2)c2ccccc2)CC1`: 178 to 180 °C. Next, `CN1C(=O)C(C(=O)NCC2CCC(C(=O)O)CC2)S(=O)(=O)c2ccccc21` (stereo unspecified): 203 to 204 °C; `CN(C(=S)n1cc(F)c(N)nc1=O)c1ccccc1`: 192 to 196 °C; `CCn1c(-c2cccnc2)nc(-c2ccncc2)c1-c1ccc(Cl)cc1`: 248 to 250 °C.

In turn, `COC(=O)c1ccc2c(c1)N(C(=O)c1ccc(-c3ccccc3C(F)(F)F)c(C)c1)Cc1cccn1C2` yielded a melting point of 180 to 182 °C. For the molecule `CCc1cccc(NCCCc2cn(C(c3ccccc3)(c3ccccc3)c3ccccc3)cn2)c1`, the melting point fell in the range of 189 to 191 °C. Turning to `CCc1nc(N)nc(N)c1CCCc1cc(Cl)c(Cl)cc1Cl`, the melting point is 168 to 182 °C. Next, `COC(=O)C1(O)CN2CCC1CC2` (stereo unspecified): 122 °C.

Take `CC12CCC3C(CC=C4CCCCC43C)C1CC=C2Br` (stereo unspecified): the melting point lay within 109 to 113 °C.

For the molecule `N#Cc1c(Br)[nH]c(Br)c1Br`, the melting point is 151 to 152 °C. Next, `C=C1CC(Cn2cc(C)c(=O)[nH]c2=O)(c2ccc(-c3ccccc3)cc2)OC1=O` (stereo unspecified): 217 to 219 °C; `O=C(Nc1ccc(-n2nc(C(F)(F)F)cc2C(F)(F)F)cc1)c1ccc(F)c(F)c1F`: 122 to 124 °C; `Fc1ccc2sc(CCl)nc2c1`: 99 to 101 °C. Next, `CC(Br)C(=O)NC1=NN(c2cccc(C(F)(F)F)c2)CC1` (stereo unspecified): 54 to 56 °C. In the case of `Nc1nnc(-c2ccc(CN3CCCCCC3)s2)o1`, the melting point lay in the range of 232 to 234 °C.

Take `O=C1c2cccc([N+](=O)[O-])c2C(=O)N1c1ccc(OC(F)(F)F)cc1`: the melting point was in the range of 149 to 150 °C. `COc1ccc(C2=NN(c3ccc(CCO)cc3)C(=O)[C@H]3CC=CC[C@@H]23)cc1OC` (relative stereo) came in with a melting point of 137 to 139 °C. Next, `O=C(O)c1ccc(OCCCc2ccc(OCc3ccccc3)cc2)cc1`: 128 to 130 °C.

As for `Cc1cc2c(cc1C#N)C(c1ccccn1)=CC(C)(C)CO2`, the melting point was 171 °C. In turn, `O=[N+]([O-])c1ccccc1Cc1n[nH]c(O)n1` had a melting point of 210 to 212 °C.

As to `CN1CC(C(=O)NC2NCCS2)CC2c3ccc(C(C)(C)C)c4[nH]cc(c34)CC21` (stereo unspecified), the melting point lay within 243 to 247 °C. `CCC1CC2=C3C(=CN(OC)C2OC)OCCC3C1` (stereo unspecified) registered a melting point of 207 to 210 °C.

`COc1ccc(C=C2c3ccccc3CCc3ccccc32)cc1N` gave a melting point of 62.7 °C. Next, `COc1cccc(NC(=O)C23CC4CC(CC(C4)C2)C3)c1`: 172 to 174 °C. Next, `COc1ccc(COc2ccc(NC(C)=O)cc2C(=O)C=Cc2ccc(OCc3ccccc3)c(OCc3ccccc3)c2)cc1`: 145 to 146 °C; `Cc1nnc(-c2ccc3scc(-c4ccc(S(C)=O)cc4)c3c2)o1` (stereo unspecified): 166 to 167 °C; `CC1Oc2ccc(C(=O)CCC(=O)O)cc2NC1=O` (stereo unspecified): 198 to 200 °C.

In turn, `CC(C)(C)C(=O)c1ccc(CN2C(=O)c3ccccc3C2=O)cc1` came in with a melting point of 138 to 140 °C. Next, `C=CCN1CCN(CCC(=O)N2c3ccccc3C(=O)Nc3cccnc32)CC1`: 205 to 207 °C; `CCOC(=O)c1cc2cc(OCCCOC)cc(N(C)S(=O)(=O)c3ccccn3)c2[nH]1`: 98 to 99 °C. Next, `OCc1nccn1CCc1ccccc1`: 75.4 °C; `O=C(O)CCCc1cc2nc(Cl)ccc2n1S(=O)(=O)c1ccc2c(c1)OCO2`: 160 °C; `COc1ccc(Cn2c(=O)n(C3OC(CO)C(O)C3O)c3nc(N)[nH]c(=O)c32)cc1` (stereo unspecified): greater than 230 °C.

Take `Cc1sc2c(Br)c3ccccc3c(-c3cc(C(C)C)c(O)c(C(C)C)c3)c2c1C`: the melting point lay within 212 to 216 °C. Next, `COc1cc2c(=O)c(S(C)=O)cn(C)c2cc1F` (stereo unspecified): 263 to 264 °C. Next, `C=CCNc1nc(NCC(C)(C)C)nc2ccc([N+](=O)[O-])cc12`: 167 to 168 °C; `O=C(O)/C=C/c1ccc(-c2ccc(O)c(C34CC5CC(CC(C5)C3)C4)c2)c(Cl)c1`: 257 to 259 °C. Next, `Cc1nc2c(OCc3c(Cl)ccc(N(C)C)c3Cl)cccn2c1Br`: 120 to 122 °C; `CC(=O)NC(C)(C(=O)O)C(C)C` (stereo unspecified): 189 to 190 °C.

As for `CCOC(=O)c1[nH]cnc1C(F)(F)F`, the melting point lay within 184 to 186 °C. Next, `C=CC(=O)c1cn(C)c2ccccc12`: 106 to 107 °C; `CC1=C(C)CC(C(=O)Nc2ccccc2)C(C(=O)O)C1` (stereo unspecified): 155 to 156 °C.

`Cc1cc2ccccc2c(C2CC(=O)C=C(O)C2)c1C` (stereo unspecified) yielded a melting point of 242 °C.

`CCc1nc2cc(Cl)c(S(N)(=O)=O)cc2[nH]1` had a melting point of 240 to 242 °C. Next, `CNC(C(C)C)C(c1ccccc1)c1ccccc1` (stereo unspecified): 46 to 48 °C; `CN1C(=O)CC[C@]2(C)c3ccc(-c4ccccc4Cl)cc3CC[C@@H]12`: 111 to 120 °C; `O=c1c2ccc(Cl)cc2cc2n1CCCS2`: 109 to 110 °C. Next, `COC(=O)c1cc2cc(NC(C)=O)ccc2o1`: 158 to 159 °C; `CCOC(=O)Cc1nsc2ccc(-n3c(=O)cc(C(F)(F)F)n(C)c3=O)cc12`: 150 to 152 °C. Next, `CS(=O)(=O)OC[C@@H]1CCC(=O)N1`: 72 to 74 °C; `CC(Cc1ccc(F)cc1)(NC(=O)CNC(=O)CN)c1ccc(F)cc1` (stereo unspecified): 139 to 140 °C; `N#Cc1c(Cc2ccccc2)n[nH]c1N`: 183 to 185 °C. In the case of `C#CCN(C(=O)c1cnccc1C(F)(F)F)S(=O)(=O)c1cccc(C)c1`, the melting point lay in the range of 111 to 114 °C. Next, `CCCCN(CC)CC1CCCCN1CCNC(=O)N1c2ccccc2C(=O)Nc2cccnc21` (stereo unspecified): 156 to 157 °C; `O=C1Cc2cc([N+](=O)[O-])ccc2Sc2ccccc21`: 171 to 172 °C. Next, `CC(=O)OC1C(COC(=O)c2ccccc2)OC(n2cc(F)c(=O)[nH]c2=O)C1F` (stereo unspecified): 177 to 179 °C; `Cc1oc(-c2ccccc2)nc1CCC(=O)c1ccc(CC2OC(=O)NC2=O)cc1` (stereo unspecified): 198 to 200 °C; `CCCCCCCCCCCCCCCCCNC(=O)O[C@@H]1CCO[C@H]1CO` (relative stereo): 77 to 78 °C.

In the case of `COc1cc(C(=O)CCCc2ccccc2)ccc1O`, the melting point is 91 to 92 °C. Next, `Cc1cc2c(N=C=S)cccc2cn1`: 92 °C.

For the molecule `CC(N)=Nc1ccc(Cl)cc1Cc1ccccc1F`, the melting point lay within 115 to 119 °C. Next, `COC(C)=CC(=O)Nc1cccc(N(C)C(N)=O)c1`: 166 °C; `CCCCNC(=O)NC1Cc2ccc(C3=NNC(=O)CC3)cc2C1` (stereo unspecified): 206 to 207 °C. `O=C1CCCN1C(=O)NCCCN1CC=C(c2ccc(Cl)c(Cl)c2)CC1` came in with a melting point of 136 °C.

The melting point is the temperature of the solid-liquid transition.
